Test results from ChEMBL document CHEMBL1201861, “Genomics of Drug Sensitity in Cancer screening data, Wellcome Trust Sanger Institute”.

Tests used:
Assay in all cases: cells
[1] = test system: COLO-829; format: functional, cell-based, Homo sapiens; settings: Homo sapiens, COLO-829
Description: SANGER: Inhibition of human COLO-829 cell growth in a cell viability assay.

[2] = test system: D-502MG; format: functional, cell-based, Homo sapiens; settings: Homo sapiens, D-502MG
Description: SANGER: Inhibition of human D-502MG cell growth in a cell viability assay.

[3] = test system: DEL; format: functional, cell-based, Homo sapiens; settings: Homo sapiens, DEL;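 note: growth inhibition of the human DEL cell line, read out with a cell viability assay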
Description: SANGER: Inhibition of human DEL cell growth in a cell viability assay.

[4] = test system: ES8; format: functional, cell-based, Homo sapiens; settings: Homo sapiens, ES8;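 note: growth inhibition of human ES8 cells, read out with a cell viability assay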
Description: SANGER: Inhibition of human ES8 cell growth in a cell viability assay.

[5] = test system: EW-16; format: functional, cell-based, Homo sapiens; settings: Homo sapiens, EW-16;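 note: growth inhibition of human EW-16 cells, read out as cell viability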
Description: SANGER: Inhibition of human EW-16 cell growth in a cell viability assay.

[6] = test system: GB-1; format: functional, cell-based, Homo sapiens; settings: Homo sapiens, GB-1;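 note: growth of GB-1 cells judged by a viability assay, IC50 marks the concentration inhibiting growth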
Description: SANGER: Inhibition of human GB-1 cell growth in a cell viability assay.

[7] = test system: HCC2157; format: functional, cell-based, Homo sapiens; settings: Homo sapiens, HCC2157;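 note: growth inhibition of the cancer cell line, read out as cell viability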
Description: SANGER: Inhibition of human HCC2157 cell growth in a cell viability assay.

[8] = test system: HCE-T; format: functional, cell-based, Homo sapiens; settings: Homo sapiens, HCE-T;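 note: cell viability assay read-out, reporting inhibition of HCE-T cell growth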
Description: SANGER: Inhibition of human HCE-T cell growth in a cell viability assay.

[9] = test system: J-RT3-T3-5; format: functional, cell-based, Homo sapiens; settings: Homo sapiens, J-RT3-T3-5;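 note: cell viability assay measuring growth inhibition of human J-RT3-T3-5 cells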
Description: SANGER: Inhibition of human J-RT3-T3-5 cell growth in a cell viability assay.

[10] = test system: KARPAS-299; format: functional, cell-based, Homo sapiens; settings: Homo sapiens, KARPAS-299
Description: SANGER: Inhibition of human KARPAS-299 cell growth in a cell viability assay.

[11] = test system: KGN; format: functional, cell-based, Homo sapiens; settings: Homo sapiens, KGN;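 note: growth inhibition of KGN cells, read out with a cell viability assay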
Description: SANGER: Inhibition of human KGN cell growth in a cell viability assay.

[12] = test system: KLE; format: functional, cell-based; settings: Homo sapiens;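 note: growth inhibition of human KLE cells, read out with a cell viability assay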
Description: SANGER: Inhibition of human KLE cell growth in a cell viability assay.

[13] = test system: KM-H2; format: functional, cell-based, Homo sapiens; settings: Homo sapiens, KM-H2;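 note: growth inhibition of KM-H2 cells, read out by a cell viability assay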
Description: SANGER: Inhibition of human KM-H2 cell growth in a cell viability assay.

[14] = test system: KM12; format: functional, cell-based, Homo sapiens; settings: Homo sapiens, KM12;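 note: KM12 cell growth inhibition, read out with a cell viability assay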
Description: SANGER: Inhibition of human KM12 cell growth in a cell viability assay.

[15] = test system: KNS-42; format: functional, cell-based; settings: Homo sapiens;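 note: growth inhibition of KNS-42 cells, read out with a cell viability assay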
Description: SANGER: Inhibition of human KNS-42 cell growth in a cell viability assay.

[16] = test system: L-428; format: functional, cell-based, Homo sapiens; settings: Homo sapiens, L-428
Description: SANGER: Inhibition of human L-428 cell growth in a cell viability assay.

[17] = test system: LB2241-RCC; format: functional, cell-based, Homo sapiens; settings: Homo sapiens, LB2241-RCC;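 note: cell viability assay measuring how strongly the cultured human renal carcinoma line is prevented from growing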
Description: SANGER: Inhibition of human LB2241-RCC cell growth in a cell viability assay.

[18] = test system: LB831-BLC; format: functional, cell-based, Homo sapiens; settings: Homo sapiens, LB831-BLC;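 note: growth inhibition of LB831-BLC cells, read out with a cell viability assay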
Description: SANGER: Inhibition of human LB831-BLC cell growth in a cell viability assay.

[19] = test system: LB996-RCC; format: functional, cell-based, Homo sapiens; settings: Homo sapiens, LB996-RCC
Description: SANGER: Inhibition of human LB996-RCC cell growth in a cell viability assay.

[20] = test system: LS-513; format: functional, cell-based, Homo sapiens; settings: Homo sapiens, LS-513
Description: SANGER: Inhibition of human LS-513 cell growth in a cell viability assay.

[21] = test system: MFM-223; format: functional, cell-based, Homo sapiens; settings: Homo sapiens, MFM-223
Description: SANGER: Inhibition of human MFM-223 cell growth in a cell viability assay.

[22] = test system: MZ7-mel; format: functional, cell-based, Homo sapiens; settings: Homo sapiens, MZ7-mel;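 note: growth inhibition of human MZ7-mel cells, measured by a cell viability assay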
Description: SANGER: Inhibition of human MZ7-mel cell growth in a cell viability assay.

[23] = test system: Mo; format: functional, cell-based, Homo sapiens; settings: Homo sapiens, Mo
Description: SANGER: Inhibition of human Mo-T cell growth in a cell viability assay.

[24] = test system: NCI-H1304; format: functional, cell-based, Homo sapiens; settings: Homo sapiens, NCI-H1304;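 note: growth inhibition of the cancer cell line, measured in a cell viability assay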
Description: SANGER: Inhibition of human NCI-H1304 cell growth in a cell viability assay.

[25] = test system: SNU1; format: functional, cell-based, Homo sapiens; settings: Homo sapiens, SNU1;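 note: growth inhibition of human NCI-SNU-1 cells, measured with a cell viability assay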
Description: SANGER: Inhibition of human NCI-SNU-1 cell growth in a cell viability assay.

[26] = test system: NEC8; format: functional, cell-based, Homo sapiens; settings: Homo sapiens, NEC8;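 note: growth inhibition of human NEC8 cells, read out by a cell viability assay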
Description: SANGER: Inhibition of human NEC8 cell growth in a cell viability assay.

[27] = test system: OVCAR-4; format: functional, cell-based, Homo sapiens; settings: Homo sapiens, OVCAR-4;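 note: growth inhibition of human OVCAR-4 cells, measured with a cell viability assay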
Description: SANGER: Inhibition of human OVCAR-4 cell growth in a cell viability assay.

[28] = test system: RPMI-8866; format: functional, cell-based, Homo sapiens; settings: Homo sapiens, RPMI-8866
Description: SANGER: Inhibition of human RPMI-8866 cell growth in a cell viability assay.

[29] = test system: SCC-15; format: functional, cell-based, Homo sapiens; settings: Homo sapiens, SCC-15;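 note: growth inhibition of SCC-15 cells, read out with a cell viability assay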
Description: SANGER: Inhibition of human SCC-15 cell growth in a cell viability assay.

[30] = test system: SF-539; format: functional, cell-based, Homo sapiens; settings: Homo sapiens, SF-539;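 note: Read-out is a cell viability assay, with IC50 reflecting inhibition of cell growth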
Description: SANGER: Inhibition of human SF539 cell growth in a cell viability assay.

[31] = test system: SHP77; format: functional, cell-based, Homo sapiens, SHP-77; settings: Homo sapiens, SHP77;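 note: growth inhibition of human SHP-77 cells measured by a cell viability assay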
Description: SANGER: Inhibition of human SHP-77 cell growth in a cell viability assay.

[32] = test system: SK-MEL-1; format: functional, cell-based, Homo sapiens; settings: Homo sapiens, SK-MEL-1;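 note: growth inhibition of human SK-MEL-1 cells, read out by a cell viability assay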
Description: SANGER: Inhibition of human SK-MEL-1 cell growth in a cell viability assay.

[33] = test system: SK-N-FI; format: functional, cell-based, Homo sapiens; settings: Homo sapiens, SK-N-FI;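 note: cell viability assay measuring growth inhibition of human SK-N-FI cells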
Description: SANGER: Inhibition of human SK-N-FI cell growth in a cell viability assay.

[34] = test system: SNU-C2B; format: functional, cell-based; settings: Homo sapiens;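 note: cell viability readout used to measure compound-driven suppression of SNU-C2B cell proliferation, IC50 marking half-maximal growth inhibition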
Description: SANGER: Inhibition of human SNU-C2B cell growth in a cell viability assay.

[35] = test system: SW872; format: functional, cell-based, Homo sapiens; settings: Homo sapiens, SW872;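 note: growth inhibition of SW872 cells, read out by a viability assay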
Description: SANGER: Inhibition of human SW872 cell growth in a cell viability assay.

[36] = test system: SW982; format: functional, cell-based; settings: Homo sapiens;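 note: growth inhibition of SW982 cells, read out with a cell viability assay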
Description: SANGER: Inhibition of human SW982 cell growth in a cell viability assay.

[37] = test system: 697; format: functional, cell-based, Homo sapiens; settings: Homo sapiens
Description: SANGER: Inhibition of human 697 cell growth in a cell viability assay.

[38] = test system: ATN-1; format: functional, cell-based, Homo sapiens; settings: Homo sapiens, ATN-1;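 note: growth inhibition of human ATN-1 cells, read out with a cell viability assay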
Description: SANGER: Inhibition of human ATN-1 cell growth in a cell viability assay.

[39] = test system: TE-5; format: functional, cell-based, Homo sapiens; settings: Homo sapiens, TE-5;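 note: inhibition of cell growth, read out by a cell viability assay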
Description: SANGER: Inhibition of human TE-5 cell growth in a cell viability assay.

[40] = test system: TGBC1TKB; format: functional, cell-based, Homo sapiens; settings: Homo sapiens, TGBC1TKB;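 note: growth inhibition of TGBC1TKB cells, read out by a cell viability assay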
Description: SANGER: Inhibition of human TGBC1TKB cell growth in a cell viability assay.

[41] = test system: CAS-1; format: functional, cell-based, Homo sapiens; settings: Homo sapiens, CAS-1;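 note: growth inhibition of CAS-1 cells, measured with a cell viability assay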
Description: SANGER: Inhibition of human CAS-1 cell growth in a cell viability assay.

[42] = test system: CCRF-CEM; format: functional, cell-based, Homo sapiens; settings: Homo sapiens, CCRF-CEM;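 note: inhibition of CCRF-CEM cell growth, measured by a cell viability assay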
Description: SANGER: Inhibition of human CCRF-CEM cell growth in a cell viability assay.

[43] = test system: COLO-684; format: functional, cell-based, Homo sapiens; settings: Homo sapiens, COLO-684
Description: SANGER: Inhibition of human COLO-684 cell growth in a cell viability assay.

[44] = test system: HCC2218; format: functional, cell-based, Homo sapiens; settings: Homo sapiens, HCC2218;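 note: cell viability assay read-out, with IC50 given as the concentration that inhibits growth of the cell line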
Description: SANGER: Inhibition of human HCC2218 cell growth in a cell viability assay.

[45] = test system: KARPAS-45; format: functional, cell-based, Homo sapiens; settings: Homo sapiens, KARPAS-45;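 note: inhibition of cell line growth, read out through a viability assay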
Description: SANGER: Inhibition of human KARPAS-45 cell growth in a cell viability assay.

[46] = test system: KU812 cell line; format: functional, cell-based, Homo sapiens; settings: Homo sapiens, KU812;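 note: growth inhibition of KU812 cells, read out with a cell viability assay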
Description: SANGER: Inhibition of human KU812 cell growth in a cell viability assay.

[47] = test system: SK-UT-1; format: functional, cell-based, Homo sapiens; settings: Homo sapiens, SK-UT-1;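 note: growth inhibition of SK-UT-1 cells, measured by a cell viability assay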
Description: SANGER: Inhibition of human SK-UT-1 cell growth in a cell viability assay.

## CS(=O)(=O)N1CCN(Cc2cc3nc(-c4cccc5[nH]ncc45)nc(N4CCOCC4)c3s2)CC1 [PICTILISIB]
[1]
  IC50: > 4000 nM
[2]
  IC50: 2320 nM
[3]
  IC50: > 4000 nM
[4]
  IC50: 811 nM
[5]
  IC50: 1850 nM
[6]
  IC50: > 4000 nM
[7]
  IC50: 2330 nM
[8]
  IC50: > 4000 nM
[9]
  IC50: > 4000 nM
[10]
  IC50: > 4000 nM
[11]
  IC50: > 4000 nM
[12]
  IC50: > 4000 nM
[13]
  IC50: > 4000 nM
[14]
  IC50: > 4000 nM
[15]
  IC50: > 4000 nM
[16]
  IC50: > 4000 nM
[17]
  IC50: 304 nM
[18]
  IC50: > 4000 nM
[19]
  IC50: 1220 nM
[20]
  IC50: > 4000 nM
[21]
  IC50: > 4000 nM
[22]
  IC50: > 4000 nM
[23]
  IC50: > 4000 nM
[24]
  IC50: > 4000 nM
[25]
  IC50: > 4000 nM
[26]
  IC50: 654 nM
[27]
  IC50: > 4000 nM
[28]
  IC50: > 4000 nM
[29]
  IC50: > 4000 nM
[30]
  IC50: > 4000 nM
[31]
  IC50: > 4000 nM
[32]
  IC50: 1310 nM
[33]
  IC50: > 4000 nM
[34]
  IC50: > 4000 nM
[35]
  IC50: 728 nM
[36]
  IC50: > 4000 nM
[37]
  IC50: 832 nM
[38]
  IC50: > 4000 nM
[39]
  IC50: > 4000 nM
[40]
  IC50: > 4000 nM
[41]
  IC50: > 4000 nM
[42]
  IC50: > 4000 nM
[43]
  IC50: 523 nM

## CC1=C(/C=C/C(C)=C/C=C/C(C)=C/C(=O)O)C(C)(C)CCC1 [TRETINOIN]
[1]
  IC50: > 10000 nM
[2]
  IC50: > 10000 nM
[3]
  IC50: > 10000 nM
[4]
  IC50: > 10000 nM
[5]
  IC50: > 10000 nM
[6]
  IC50: > 10000 nM
[44]
  IC50: > 10000 nM
[8]
  IC50: > 10000 nM
[9]
  IC50: > 10000 nM
[10]
  IC50: > 10000 nM
[45]
  IC50: 2600 nM
[11]
  IC50: > 10000 nM
[12]
  IC50: > 10000 nM
[13]
  IC50: > 10000 nM
[14]
  IC50: > 10000 nM
[15]
  IC50: > 10000 nM
[46]
  IC50: 536 nM
[16]
  IC50: > 10000 nM
[17]
  IC50: > 10000 nM
[18]
  IC50: > 10000 nM
[20]
  IC50: > 10000 nM
[21]
  IC50: > 10000 nM
[22]
  IC50: > 10000 nM
[23]
  IC50: > 10000 nM
[24]
  IC50: > 10000 nM
[25]
  IC50: > 10000 nM
[26]
  IC50: > 10000 nM
[27]
  IC50: > 10000 nM
[28]
  IC50: > 10000 nM
[29]
  IC50: 9350 nM
[30]
  IC50: > 10000 nM
[31]
  IC50: > 10000 nM
[32]
  IC50: > 10000 nM
[33]
  IC50: > 10000 nM
[47]
  IC50: > 10000 nM
[34]
  IC50: > 10000 nM
[35]
  IC50: > 10000 nM
[36]
  IC50: > 10000 nM
[37]
  IC50: > 10000 nM
[38]
  IC50: 30.3 nM
[39]
  IC50: > 10000 nM
[40]
  IC50: > 10000 nM
[41]
  IC50: > 10000 nM
[42]
  IC50: > 10000 nM
[43]
  IC50: > 10000 nM

## NC(=O)c1ccc(N(C(N)=O)c2c(F)cccc2F)nc1-c1ccc(F)cc1F [VX-702]
[1]
  IC50: > 2000 nM
[2]
  IC50: > 2000 nM
[3]
  IC50: > 2000 nM
[4]
  IC50: > 2000 nM
[5]
  IC50: > 2000 nM
[6]
  IC50: > 2000 nM
[44]
  IC50: 497 nM
[8]
  IC50: > 2000 nM
[9]
  IC50: > 2000 nM
[10]
  IC50: > 2000 nM
[45]
  IC50: 148 nM
[11]
  IC50: > 2000 nM
[12]
  IC50: > 2000 nM
[13]
  IC50: > 2000 nM
[14]
  IC50: > 2000 nM
[15]
  IC50: > 2000 nM
[46]
  IC50: 125 nM
[16]
  IC50: > 2000 nM
[17]
  IC50: > 2000 nM
[18]
  IC50: > 2000 nM
[20]
  IC50: > 2000 nM
[21]
  IC50: > 2000 nM
[22]
  IC50: > 2000 nM
[23]
  IC50: > 2000 nM
[24]
  IC50: > 2000 nM
[25]
  IC50: > 2000 nM
[26]
  IC50: > 2000 nM
[27]
  IC50: > 2000 nM
[28]
  IC50: > 2000 nM
[29]
  IC50: > 2000 nM
[30]
  IC50: > 2000 nM
[31]
  IC50: > 2000 nM
[32]
  IC50: > 2000 nM
[33]
  IC50: > 2000 nM
[47]
  IC50: > 2000 nM
[34]
  IC50: > 2000 nM
[35]
  IC50: > 2000 nM
[36]
  IC50: > 2000 nM
[37]
  IC50: > 2000 nM
[38]
  IC50: > 2000 nM
[39]
  IC50: > 2000 nM
[40]
  IC50: > 2000 nM
[41]
  IC50: > 2000 nM
[42]
  IC50: > 2000 nM
[43]
  IC50: > 2000 nM
